Data: US7713970B2, “Substituted cyclic urea derivatives” (FMC Corporation, priority 2004, dated 2010)

Tested on: tobacco budworm (Heliothis virescens [Fabricius])
Experiment: surface-treated diet test against tobacco budworm
Type: in vivo
Details: 0.25 millimolar candidate insecticide on the surface of the diet, second instar larvae, five-day exposure; for Percent Mortality: compared to total number of insects infested; for Percent Growth Inhibition: inhibition of insect weight relative to untreated controls
Method: Candidate insecticides were evaluated for activity against the tobacco budworm (Heliothis virescens [Fabricius]) in a surface-treated diet test.
In this test one mL of molten (65-70° C.) wheat germ-based artificial diet was pipetted into each well of a four by six (24 well) multi-well plate (ID# 430345-15.5 mm dia.×17.6 mm deep; Corning Costar Corp., One Alewife Center, Cambridge, Mass. 02140). The diet was allowed to cool to ambient temperature before treatment with candidate insecticide.
For a determination of insecticidal activity, solutions of the candidate insecticides were prepared for testing using a Packard 204DT Multiprobe® Robotic System (Packard Instrument Company, 800 Research Parkway, Meriden, Conn. 06450), in which the robot first diluted a standard 50 millimolar DMSO solution of candidate insecticide with a 1:1 water/acetone solution (V/V) in a ratio of 1:7 stock solution to water/acetone. The robot subsequently pipetted 40 microliters of the so-prepared solution onto the surface of the diet in each of three wells in the 24 multi-well plate. The process was repeated with solutions of seven other candidate insecticides. Once treated, the contents of the multi-well plate were allowed to dry, leaving 0.25 millimoles of candidate insecticide on the surface of the diet, or a concentration of 0.25 millimolar. Appropriate untreated controls containing only DMSO on the diet surface were also included in this test.
For evaluations of the insecticidal activity of a candidate insecticide at varying rates of application, the test was established as described above using sub-multiples of the standard 50 millimolar DMSO solution of candidate insecticide. For example, the standard 50 millimolar solution was diluted by the robot with DMSO to give 5, 0.5, 0.05, 0.005, 0.0005 millimolar, or more dilute solutions of the candidate insecticide. In these evaluations there were six replicates of each rate of application placed on the surface of the diet in the 24 multi-well plate, for a total of four rates of application of candidate insecticide in each plate.
In each well of the test plate was placed one second instar tobacco budworm larvea, each weighing approximately five milligrams. After the larvae were placed in each well, the plate was sealed with clear polyfilm adhesive tape. The tape over each well was perforated to ensure an adequate air supply. The plates were then held in a growth chamber at 25° C. and 60% relative humidity for five days (light 14 hours/day).
After the five-day exposure period insecticidal activity for each rate of application of candidate insecticide was assessed as percent inhibition of insect weight relative to the weight of insects from untreated controls, and percent mortality when compared to the total number of insects infested.

Row | SMILES | Percent Mortality | Percent Growth Inhibition
1 | O=c1n(CCCCOc2c(Cl)cc(OCC=C(Cl)Cl)cc2Cl)nnn1Cc1ccc(Cl)cc1 [Compound 515] | 100% | 100%
2 | O=c1n(CCCCOc2c(Cl)cc(OCC=C(Cl)Cl)cc2Cl)nnn1Cc1ccc(Cl)cc1Cl [Compound 517] | 100% | 100%
3 | O=c1n(CCCCOc2c(Cl)cc(OCC=C(Cl)Cl)cc2Cl)nnn1Cc1ccc(Cl)c(Cl)c1 [Compound 520] | 0% | 58%
4 | O=c1n(CCCCOc2c(Cl)cc(OCC=C(Cl)Cl)cc2Cl)nnn1Cc1cc(Cl)cc(Cl)c1 [Compound 521] | 100% | 100%
5 | O=c1n(CCOc2c(Cl)cc(OCC=C(Cl)Cl)cc2Cl)nnn1Cc1ccccc1Cl [Compound 522] | 50% | 100%
6 | O=c1n(CCCOc2c(Cl)cc(OCC=C(Cl)Cl)cc2Cl)nnn1Cc1ccccc1Cl [Compound 523] | 100% | 100%
7 | O=c1n(Cc2ccc(C(F)(F)F)cc2)cnn1CCCCOc1c(Cl)cc(OCC=C(Cl)Cl)cc1Cl [Compound 546] | 100% | 100%
8 | O=c1n(Cc2ccc(C(F)(F)F)cc2)cnn1CCOc1c(Cl)cc(OCC=C(Cl)Cl)cc1Cl [Compound 548] | 100% | 100%
9 | O=C1CN(CCCCOc2c(Cl)cc(OCC=C(Cl)Cl)cc2Cl)C(=O)N1c1ccc(Cl)cc1 [Compound 576] | 100% | 100%
10 | O=C1C(=O)N(c2ccc(Cl)cc2)C(=O)N1CCCCOc1c(Cl)cc(OCC=C(Cl)Cl)cc1Cl [Compound 613] | 100% | 100%
11 | O=c1cnn(-c2ccc(Cl)c(Cl)c2)c(=O)n1CCCCOc1c(Cl)cc(OCC=C(Cl)Cl)cc1Cl [Compound 647] | 100% | 100%
12 | O=c1cnn(-c2ccc(Cl)cc2Cl)c(=O)n1CCCCOc1c(Cl)cc(OCC=C(Cl)Cl)cc1Cl [Compound 648] | 100% | 100%
13 | O=c1cnn(-c2cc(Cl)cc(Cl)c2)c(=O)n1CCCCOc1c(Cl)cc(OCC=C(Cl)Cl)cc1Cl [Compound 649] | 100% | 100%
14 | O=c1cnn(-c2cccc(Cl)c2)c(=O)n1CCCCOc1c(Cl)cc(OCC=C(Cl)Cl)cc1Cl [Compound 650] | 100% | 100%
15 | O=c1cnn(-c2ccc(Cl)cc2)c(=O)n1CCCCOc1c(Cl)cc(OCC=C(Cl)Cl)cc1Cl [Compound 651] | 100% | 100%
16 | O=c1cnn(-c2ccccc2Cl)c(=O)n1CCCCOc1c(Cl)cc(OCC=C(Cl)Cl)cc1Cl [Compound 652] | 100% | 100%
17 | O=c1cnn(-c2ccc(F)cc2F)c(=O)n1CCCCOc1c(Cl)cc(OCC=C(Cl)Cl)cc1Cl [Compound 653] | 100% | 100%
18 | COc1cc(-n2ncc(=O)n(CCCCOc3c(Cl)cc(OCC=C(Cl)Cl)cc3Cl)c2=O)ccc1Cl [Compound 654] | 100% | 100%
19 | COc1ccc(-n2ncc(=O)n(CCCCOc3c(Cl)cc(OCC=C(Cl)Cl)cc3Cl)c2=O)cc1 [Compound 655] | 100% | 100%
20 | O=c1cnn(-c2ccc(OC(F)F)cc2)c(=O)n1CCCCOc1c(Cl)cc(OCC=C(Cl)Cl)cc1Cl [Compound 656] | 100% | 100%
21 | O=c1cnn(-c2ccccc2)c(=O)n1CCCCOc1c(Cl)cc(OCC=C(Cl)Cl)cc1Cl [Compound 657] | 100% | 100%
22 | O=c1n(CCCCOc2cc(Cl)c(OCC=C(Cl)Cl)c(Cl)c2)nnn1-c1cccc(Cl)c1 [Compound 661] | 100% | 100%
